Measurements as given in patent EP2853293B1, “Thioninium compounds and their use” (WisTa Laboratories Ltd., priority 2006, dated 2007).
Structures can show the parent of a compound that is named as a salt. Where two headings read alike, the source gives them in different places.

How the values were obtained:
[1] = system: fibroblast cells (3T6); conditions: cell numbers after 24 hrs exposure, lactate dehydrogenase assay after lysis of remaining cells
Method: Toxicity of the compounds described herein was assessed in the cell based assay used to assess EC50. Toxicity was measured by cell numbers after 24 hrs exposure to the compound using a lactate dehydrogenase assay kit TOX-7(Sigma Biosciences) according to the manufacturer's instructions after lysis of remaining cells. Alternatively a kit from Promega UK (CytoTox 96) was used, again according to the manufacturer's instructions.

[2] = biological target: T1, full-length tau ("T40") in fibroblast cells (3T6) (Homo sapiens, UniProt P10636); assay: Cell-based assay for establishing EC50 (inhibition of generation of the 12 kD PHF-core tau fragment); conditions: concentration at which there is a 50% inhibition of generation of the 12 kD fragment; 3T6 cells
T1 construct: fibroblast cells (3T6) express full-length tau ("T40") under control of an inducible promotor; low constitutive levels of the PHF-core tau fragment (12 kD fragment); expressed in transfected cells; host or cells: 3T6 fibroblast cells
Source text: In essence, fibroblast cells (3T6) express full-length tau ("T40") under control of an inducible promotor, and low constitutive levels of the PHF-core tau fragment (12 kD fragment).
This is referred to as the EC50 value.

[3] = biological target: T2, tau-tau binding (truncated tau residues 297-390; dGA, and full-length tau (T40)) (Homo sapiens, UniProt P10636); conditions: read-out: B50; concentration of compound required to inhibit the tau-tau binding by 50%
Source text: (§1) Briefly, a fragment of tau corresponding to the core repeat domain, which has been adsorbed to a solid phase substrate, is able to capture soluble full-length tau and bind tau with high affinity.
(§2) The aqueous phase binding buffer contained 0.05% Tween-20 and 1% gelatine in phosphate-buffered saline (pH7.4).

[4] = biological target: T2, tau-tau binding (truncated tau residues 297-390; dGA, and full-length tau (T40)); assay: biochemical
Source text: as §1, §2

T1 sequence (P10636 2-441 isoform P10636-8 limits assumed): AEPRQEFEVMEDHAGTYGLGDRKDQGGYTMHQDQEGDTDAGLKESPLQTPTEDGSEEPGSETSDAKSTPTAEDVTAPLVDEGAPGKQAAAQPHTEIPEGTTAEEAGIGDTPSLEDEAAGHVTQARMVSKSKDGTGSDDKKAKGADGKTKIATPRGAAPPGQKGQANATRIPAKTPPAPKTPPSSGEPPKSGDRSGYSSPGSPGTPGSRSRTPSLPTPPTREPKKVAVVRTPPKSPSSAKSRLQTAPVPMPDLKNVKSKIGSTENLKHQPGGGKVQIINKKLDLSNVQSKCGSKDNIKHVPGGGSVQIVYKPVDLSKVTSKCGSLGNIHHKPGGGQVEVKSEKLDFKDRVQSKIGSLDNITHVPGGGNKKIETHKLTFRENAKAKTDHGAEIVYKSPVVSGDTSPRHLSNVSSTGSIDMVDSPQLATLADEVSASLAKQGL
T2 sequence (P10636 614-707): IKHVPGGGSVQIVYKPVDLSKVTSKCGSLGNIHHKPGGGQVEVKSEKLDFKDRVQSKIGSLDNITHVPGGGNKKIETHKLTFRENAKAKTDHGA
T2 sequence (P10636 1-441 isoform P10636-8): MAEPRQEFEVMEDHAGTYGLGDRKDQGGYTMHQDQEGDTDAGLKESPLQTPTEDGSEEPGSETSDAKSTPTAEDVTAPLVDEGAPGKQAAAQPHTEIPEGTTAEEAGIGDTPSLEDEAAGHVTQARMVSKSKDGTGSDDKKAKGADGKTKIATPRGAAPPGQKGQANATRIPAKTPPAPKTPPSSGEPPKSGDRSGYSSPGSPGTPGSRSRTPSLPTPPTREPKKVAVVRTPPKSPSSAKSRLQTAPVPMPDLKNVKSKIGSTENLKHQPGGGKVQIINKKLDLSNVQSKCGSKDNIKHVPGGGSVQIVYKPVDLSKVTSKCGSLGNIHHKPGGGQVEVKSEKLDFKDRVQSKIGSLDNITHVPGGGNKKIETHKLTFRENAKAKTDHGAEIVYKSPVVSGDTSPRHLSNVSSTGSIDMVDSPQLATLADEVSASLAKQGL

Compound | LD50 [1] | EC50 [2] [nM] | IC50 [3] [nM] | IC50 [4] [nM]
CCc1cc(N(C)C)cc2[s+]c3cc(N(C)C)cc(CC)c3nc12 [DEMTC, 1,9-diethyl-methyl-thioninium chloride] | 3.3 ± 0.6 (22) µM | 1.6 ± 0.6 | – | –
CCc1cc(N(CC)CC)cc2[s+]c3cc(N(CC)CC)cc(CC)c3nc12 [DEETC, 1,9-diethyl-ethyl-thioninium chloride] | 1.6 ± 0.4 (13) µM | 0.6 ± 0.3 | 3700 ± 500 | –
CCN(CC)c1ccc2nc3ccc(=[N+](CC)CC)cc-3sc2c1 [ETI.HI, ethyl-thioninium iodide hydrogen iodide mixed salt] | – | – | – | 83000
CCN(CC)c1cc(C)c2nc3c(C)cc(N(CC)CC)cc3[s+]c2c1 [DMETC, 1,9-dimethyl-ethyl-thioninium chloride] | 4.2 ± 2.2 (4) µM | 4 ± 1 | 4500 ± 300 | –
Cc1cc(N(C)C)cc2[s+]c3cc(N(C)C)cc(C)c3nc12 [DMMTC, 1,9-dimethyl-methyl-thioninium chloride, reference compound] | 2.7 ± 1.2 (6) µM | 40 ± 4 | – | –
ethyl-thioninium chloride [ETC] | 32.0 ± 4.0 (26) µM | 70 ± 7 | 49000 ± 8500 | –
CCN(CC)c1ccc2nc3ccc(=[N+](CC)CC)cc-3sc2c1 [ETI, ethyl-thioninium iodide] | – | 60 | > 500000 | –
